From ChEMBL document CHEMBL1145318, “Amide-substituted farnesylcysteine analogs as inhibitors of human isoprenylcysteine carboxyl methyltransferase” (Bioorg Med Chem Lett, 2006)

Legend:
[1] = biological target: T1, Protein-S-isoprenylcysteine O-methyltransferase (Homo sapiens, UniProt O60725); experiment: Inhibition of human Icmt by methanol vapour diffusion assay
[2] = biological target: T1, Protein-S-isoprenylcysteine O-methyltransferase; experiment: Inhibition of human Icmt in Saccharomyces cerevisiae cell membrane relative to control by SPA; values are per cent of control; design: concentration or dose not given beside the values

T1 sequence (O60725 whole entry, the tested form may be a part): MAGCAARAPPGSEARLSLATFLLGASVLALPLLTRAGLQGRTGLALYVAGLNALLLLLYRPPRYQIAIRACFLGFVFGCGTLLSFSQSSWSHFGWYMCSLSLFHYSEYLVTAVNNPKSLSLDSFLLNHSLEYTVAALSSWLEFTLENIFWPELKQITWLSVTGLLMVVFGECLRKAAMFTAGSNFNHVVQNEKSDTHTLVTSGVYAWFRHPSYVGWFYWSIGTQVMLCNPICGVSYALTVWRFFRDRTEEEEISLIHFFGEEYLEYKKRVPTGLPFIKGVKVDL

Row | SMILES | IC50 [1] | residual activity [2]
1 | CC(C)=CCC/C(C)=C/CC/C(C)=C/CSC[C@H](NC(=O)c1ccc([N+](=O)[O-])cc1)C(=O)O | 16.6 µM | 50.1%
2 | COc1ccc(-c2ccc(C(=O)N[C@@H](CSC/C=C(\C)CC/C=C(\C)CCC=C(C)C)C(=O)O)o2)cc1 | 17.4 µM | 35.1%
3 | CC(C)=CCC/C(C)=C/CC/C(C)=C/CSC[C@H](NC(=O)c1cc2ccccc2s1)C(=O)O | 20.3 µM | 28%

More lines, in order of falling IC50 [1], values ahead:

Row | IC50 [1] | residual activity [2] | SMILES
4 | 23 µM | 33.5% | CC(C)=CCC/C(C)=C/CC/C(C)=C/CSC[C@H](NC(=O)c1cc(Cl)cc(Cl)c1)C(=O)O
5 | 14.3 µM | 37.1% | CC(C)=CCC/C(C)=C/CC/C(C)=C/CSC[C@H](NC(=O)c1cc([N+](=O)[O-])cc([N+](=O)[O-])c1)C(=O)O
